Values joined by “and” are separate entries in the source; they are usually repeats but may differ in a detail not shown here. Identical values can stand only once. Inconclusive results and toxic doses are left out.
Test system: L1210 leukemia ip in BDF1 mice, survival T/C
Test: NCI In Vivo Anticancer Drug Screen. Data for tumor model L1210 Leukemia (intraperitoneal) in B6D2F1 (BDF1) mice
Details: endpoint: mean survival time, higher = longer survival
In short: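 Antitumor effect is assessed in tumor-bearing animals. Survival in the compound arm is compared with a vehicle-dosed control arm and expressed as their quotient.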

[1] = dose: 100.0 mg/kg/injection, schedule: Q01DX009 (ip), vehicle: Klucel (hydroxypropylcellulose) (HPC)
[2] = dose: 100.0 mg/kg/injection, schedule: Q04DX003 (ip), vehicle: Klucel (hydroxypropylcellulose) (HPC)
[3] = dose: 200.0 mg/kg/injection, schedule: Q01DX009 (ip), vehicle: Klucel (hydroxypropylcellulose) (HPC)
[4] = dose: 200.0 mg/kg/injection, schedule: Q04DX003 (ip), vehicle: Klucel (hydroxypropylcellulose) (HPC)
[5] = dose: 400.0 mg/kg/injection, schedule: Q01DX009 (ip), vehicle: Klucel (hydroxypropylcellulose) (HPC)
[6] = dose: 400.0 mg/kg/injection, schedule: Q04DX003 (ip), vehicle: Klucel (hydroxypropylcellulose) (HPC)
[7] = dose: 75.0 mg/kg/injection, schedule: Q01DX001 (ip), vehicle: carboxymethylcellulose (CMC)
[8] = dose: 100.0 mg/kg/injection, schedule: Q01DX001 (ip), vehicle: carboxymethylcellulose (CMC)
[9] = dose: 200.0 mg/kg/injection, schedule: Q01DX001 (ip), vehicle: carboxymethylcellulose (CMC)
[10] = dose: 400.0 mg/kg/injection, schedule: Q01DX001 (ip), vehicle: carboxymethylcellulose (CMC)
[11] = dose: 50.0 mg/kg/injection, schedule: Q04DX002 (ip), vehicle: Klucel (hydroxypropylcellulose) (HPC)
[12] = dose: 100.0 mg/kg/injection, schedule: Q04DX002 (ip), vehicle: Klucel (hydroxypropylcellulose) (HPC)
[13] = dose: 100.0 mg/kg/injection, schedule: Q01DX001 (ip), vehicle: saline
[14] = dose: 100.0 mg/kg/injection, schedule: Q04DX003 (ip), vehicle: saline
[15] = dose: 200.0 mg/kg/injection, schedule: Q01DX001 (ip), vehicle: saline
[16] = dose: 200.0 mg/kg/injection, schedule: Q04DX003 (ip), vehicle: saline
[17] = dose: 400.0 mg/kg/injection, schedule: Q01DX001 (ip), vehicle: saline
[18] = dose: 400.0 mg/kg/injection, schedule: Q04DX003 (ip), vehicle: saline
[19] = dose: 12.5 mg/kg/injection, schedule: Q01DX009 (ip), vehicle: saline
[20] = dose: 25.0 mg/kg/injection, schedule: Q01DX009 (ip), vehicle: saline
[21] = dose: 25.0 mg/kg/injection, schedule: Q04DX003 (ip), vehicle: saline
[22] = dose: 50.0 mg/kg/injection, schedule: Q01DX009 (ip), vehicle: saline
[23] = dose: 50.0 mg/kg/injection, schedule: Q04DX003 (ip), vehicle: saline
[24] = dose: 100.0 mg/kg/injection, schedule: Q04DX003 (ip), vehicle: saline with Tween-80
[25] = dose: 200.0 mg/kg/injection, schedule: Q04DX003 (ip), vehicle: saline with Tween-80
[26] = dose: 12.5 mg/kg/injection, schedule: Q04DX003 (ip), vehicle: saline

With O=C(Nc1ccc(O)cc1)OCc1ccccc1 the T/C (dose: 45.0 mg/kg/injection, schedule: Q04DX003 (ip), vehicle: Klucel (hydroxypropylcellulose) (HPC)) was 105 % of control, the T/C (dose: 50.0 mg/kg/injection, schedule: Q01DX009 (ip), vehicle: Klucel (hydroxypropylcellulose) (HPC)) was 102 % of control and the T/C (dose: 50.0 mg/kg/injection, schedule: Q04DX003 (ip), vehicle: Klucel (hydroxypropylcellulose) (HPC)) was 91 % of control. The T/C (dose: 65.0 mg/kg/injection, schedule: Q04DX003 (ip), vehicle: Klucel (hydroxypropylcellulose) (HPC)) was 101 % of control, the T/C (dose: 100.0 mg/kg/injection, schedule: Q01DX001 (ip), vehicle: Klucel (hydroxypropylcellulose) (HPC)) was 109 % of control and the T/C [1] was 104 % of control. For the same compound, the T/C [2] was 95 % of control, the T/C (dose: 200.0 mg/kg/injection, schedule: Q01DX001 (ip), vehicle: Klucel (hydroxypropylcellulose) (HPC)) was 106 % of control and the T/C [3] was 96 % of control. The T/C [4] was 105 % of control and 106 % of control, the T/C (dose: 400.0 mg/kg/injection, schedule: Q01DX001 (ip), vehicle: Klucel (hydroxypropylcellulose) (HPC)) was 97 % of control and the T/C [5] was 94 % of control. For the same compound, the T/C [6] was 98 % of control.

With CCC1(c2ccccc2)CCN(C)C1 (configuration not stated) the T/C [7] was 93 % of control.

For COc1ccc2c(C)c(Br)sc2c1, the T/C [8] was 89 % of control, the T/C [9] was 94 % of control and the T/C [10] was 94 % of control.

For O=C1CCCC2C(=O)CCCC12 (configuration not stated), the T/C (dose: 100.0 mg/kg/injection, schedule: Q## X003 (ip), vehicle: saline) was 102 % of control, the T/C (dose: 200.0 mg/kg/injection, schedule: Q## X003 (ip), vehicle: saline) was 98 % of control and the T/C (dose: 400.0 mg/kg/injection, schedule: Q## X003 (ip), vehicle: saline) was 101 % of control.

With CN=C(NCc1ccccc1)c1ccc(NC(=O)c2ccc(C(=O)Nc3ccc(C(=NC)NCc4ccccc4)cc3)c(Cl)c2)cc1 the T/C (dose: 2.0 mg/kg/injection, schedule: Q01DX Z (ip), vehicle: carboxymethylcellulose (CMC)) was 92 % of control, the T/C (dose: 4.0 mg/kg/injection, schedule: Q01DX Z (ip), vehicle: carboxymethylcellulose (CMC)) was 105 % of control and the T/C (dose: 8.0 mg/kg/injection, schedule: Q01DX Z (ip), vehicle: carboxymethylcellulose (CMC)) was 105 % of control.

O=C(O)c1cccc(Cl)c1.[Ni] was tested, and the T/C (dose: 25.0 mg/kg/injection, schedule: Q04DX002 (ip), vehicle: Klucel (hydroxypropylcellulose) (HPC)) was 103 % of control, the T/C [11] was 100 % of control and the T/C [12] was 90 % of control.

With CC1(C)/C(=C\S(=O)(=O)O)C2CCC1C2 (configuration not stated) the T/C [13] was 105 % of control, the T/C [14] was 110 % of control and the T/C [15] was 105 % of control. For the same compound, the T/C [16] was 98 % of control, the T/C [17] was 103 % of control and the T/C [18] was 101 % of control.

For CN(C)CC/C=C1\c2ccccc2CSc2ccccc21, the T/C (dose: 6.25 mg/kg/injection, schedule: Q01DX009 (ip), vehicle: saline) was 95 % of control, the T/C [19] was 108 % of control and the T/C [20] was 109 % of control. The T/C [21] was 100 % of control, the T/C [22] was 101 % of control and the T/C [23] was 89 % of control. The T/C [14] was 97 % of control.

For CC(=O)SC(C)CC(=O)O (configuration not stated), the T/C [14] was 106 % of control and the T/C [16] was 101 % of control.

With NC(=O)C(=O)NO the T/C [13] was 97 % of control, the T/C [15] was 106 % of control and the T/C [17] was 105 % of control.

In the case of CCc1[nH]c(=S)ncc1-c1ccc([N+](=O)[O-])cc1O, the T/C [2] is reported as 93 % of control, the T/C [4] is reported as 93 % of control and the T/C [6] is reported as 106 % of control.

CSC(NC(=O)c1ccc([N+](=O)[O-])cc1)C(N)=O (configuration not stated) was tested, and the T/C [11] was 102 % of control, the T/C [12] was 106 % of control and the T/C (dose: 200.0 mg/kg/injection, schedule: Q04DX002 (ip), vehicle: Klucel (hydroxypropylcellulose) (HPC)) was 109 % of control and 113 % of control. For the same compound, the T/C (dose: 400.0 mg/kg/injection, schedule: Q04DX002 (ip), vehicle: Klucel (hydroxypropylcellulose) (HPC)) was 109 % of control.

CC(=O)c1ccc[n+](Cc2ccc3c(c2)OCO3)c1 was tested, and the T/C [7] was 103 % of control and the T/C (dose: 150.0 mg/kg/injection, schedule: Q01DX001 (ip), vehicle: carboxymethylcellulose (CMC)) was 109 % of control.

For S=C(N/N=C1\CCCCC1c1ccccc1)Nc1ccccc1 (configuration not stated), the T/C [1] was 95 % of control, the T/C [3] was 90 % of control and the T/C [5] was 104 % of control.

In the case of CN=C(N)c1ccc(N=C(N)c2ccc(N=C(N)c3ccc(N=C(O)c4cccc(C(O)=Nc5ccc(C(N)=Nc6ccc(C(N)=Nc7ccc(C(N)=NC)cc7)cc6)cc5)c4)cc3)cc2)cc1, the T/C (dose: 13.0 mg/kg/injection, schedule: Q01DX015 (ip), vehicle: water) is reported as 186 % of control.

With CC1(C(=O)O)C2C=CC(C2)C1C(=O)O (configuration not stated) the T/C [14] was 96 % of control, the T/C [16] was 94 % of control and the T/C [18] was 102 % of control.

For O=C1CC(=O)N(c2ccccc2)N1, the T/C [13] was 96 % of control, the T/C [15] was 98 % of control and the T/C [17] was 98 % of control.

For Cc1ccc(CC2CC(=O)c3ccccc3C2=O)cc1 (configuration not stated), the T/C [24] was 91 % of control, the T/C [25] was 91 % of control and the T/C (dose: 400.0 mg/kg/injection, schedule: Q04DX003 (ip), vehicle: saline with Tween-80) was 89 % of control.

For CC(C(N)=O)N1C(=O)C2C3CCC(O3)C2C1=O (configuration not stated), the T/C [14] was 97 % of control, the T/C [16] was 97 % of control and the T/C [18] was 97 % of control.

CN(C)CCCN=C1Nc2ccccc2C(=NCCCN(C)C)Nc2ccccc21 was tested, and the T/C [19] was 97 % of control, the T/C [26] was 102 % of control and the T/C [20] was 97 % of control. For the same compound, the T/C [21] was 98 % of control, the T/C [22] was 94 % of control and the T/C [23] was 104 % of control.

CN(C)C(=S)SC1OC(CO)C(SC(=S)N(C)C)OC1CO (configuration not stated) was tested, and the T/C (dose: 50.0 mg/kg/injection, schedule: Q01DX009 (ip), vehicle: saline with Tween-80) was 97 % of control, the T/C (dose: 100.0 mg/kg/injection, schedule: Q01DX009 (ip), vehicle: saline with Tween-80) was 104 % of control and the T/C (dose: 200.0 mg/kg/injection, schedule: Q01DX009 (ip), vehicle: saline with Tween-80) was 97 % of control.

With Brc1cccc[n+]1-c1cccc(-c2cccc(-[n+]3ccccc3Br)c2)c1 the T/C (dose: 9.38 mg/kg/injection, schedule: Q01DX001 (ip), vehicle: other) was 100 % of control and the T/C (dose: 18.75 mg/kg/injection, schedule: Q01DX001 (ip), vehicle: other) was 101 % of control.

O=[N+]([O-])c1c[nH]c2ncnc(SCc3ccccc3)c12 was tested, and the T/C [8] was 87 % of control, the T/C [9] was 93 % of control and the T/C [10] was 91 % of control.

Cc1cc2ccccc2[n+](C)c1-c1ccccc1Cl was tested, and the T/C [26] was 102 % of control.

In the case of N=C(N)c1ccc(OCCCCOc2ccc(NC(=O)Nc3ccc(S(=O)(=O)F)cc3Cl)cc2)cc1, the T/C (dose: 100.0 mg/kg/injection, schedule: Q01DX001 (ip), vehicle: saline with Tween-80) is reported as 91 % of control and the T/C (dose: 200.0 mg/kg/injection, schedule: Q01DX001 (ip), vehicle: saline with Tween-80) is reported as 90 % of control.

With COc1nccc2ccccc12 the T/C [24] was 94 % of control and the T/C [25] was 92 % of control.

In the case of CS(=O)(=O)OCCN(CCOS(C)(=O)=O)c1ccc(N=O)c(F)c1, the T/C (dose: 7.0 mg/kg/injection, schedule: Q01DX001 (ip), vehicle: saline) is reported as 151 % of control, the T/C (dose: 40.0 mg/kg/injection, schedule: Q01DX001 (ip), vehicle: saline) is reported as 98 % of control and the T/C (dose: 80.0 mg/kg/injection, schedule: Q01DX001 (ip), vehicle: saline) is reported as 93 % of control.

For ClCCN(CC1C(c2ccccc2)C1c1ccccc1)C1CCCCC1 (configuration not stated), the T/C (dose: 1.5 mg/kg/injection, schedule: Q04DX002 (ip), vehicle: Klucel (hydroxypropylcellulose) (HPC)) was 104 % of control, the T/C (dose: 3.1 mg/kg/injection, schedule: Q04DX002 (ip), vehicle: Klucel (hydroxypropylcellulose) (HPC)) was 92 % of control and the T/C (dose: 6.25 mg/kg/injection, schedule: Q04DX002 (ip), vehicle: Klucel (hydroxypropylcellulose) (HPC)) was 92 % of control.

Nc1cc2c(cc1Br)[nH]c(=O)c1ccccc12 was tested, and the T/C [8] was 98 % of control, the T/C [9] was 96 % of control and the T/C [10] was 93 % of control.

Reference: PubChem BioAssay AID248 (DTP/NCI, 2004)
